From patent publication US12466829B2, “Spirocyclic piperidine melanocortin subtype-2 receptor (MC2R) antagonists and uses thereof” (Crinetics Pharmaceuticals, Inc., priority 2019, dated 2025)

biological target: T1, hMC2 receptor (Homo sapiens, UniProt Q01718); assay: hMC2 membrane binding assay ([125I]ACTH (1-39) Tyr23, SPA); conditions: crude membranes of CRE-bla-CHO-K1 cells expressing hMC2 receptor and hMRAP; 0.2 nM [125I]ACTH (1-39) Tyr23; 1.5 hours at room temperature; read-out: MC2R binding potency
T1 construct: host or cells: CRE-bla-CHO-K1 cells
Description: Crude membrane fractions are prepared from CRE-bla-CHO-K1 cells stably expressing hMC2 receptor and hMRAP accessory protein (Thermo Fisher). The cells are grown to 85-100% confluence on standard tissue culture dishes in GlutaMax DMEM growth media (Gibco) with following additives: 10% dialyzed FBS (Gemini), 0.1 mM NEAA (Gibco), 25 mM HEPES (Gibco), 5 μg/mL blasticidin (Goldbio), 100 μg/mL zeocin (Invitrogen), 600 μg/mL hygromycin (Goldbio). To prepare membranes, cells are scraped and collected in 1× Dulbecco's phosphate buffered saline (Corning) and then pelleted at 1000 RPM's. The cell pellet is reconstituted in membrane preparation buffer (20 mM HEPES, 6 mM MgCl2 and 1 mM EGTA, protease inhibitor tablets (Pierce) adjusted to pH 7.4), homogenized using a dounce homogenizer, and the resulting membrane fraction is pelleted by centrifugation at 12,000 RPM's. The membrane pellet is resuspended in membrane preparation buffer, snap freezed and stored at −80° C. for later use.
The hMC2 membrane binding assay utilizes the following components: radiolabel [^125I]ACTH (1-39) Tyr23 (PerkinElmer), wheatgerm agglutinin coated PVT SPA beads (PerkinElmer), crude hMC2R membranes, and compounds. Briefly hMC2R membranes are incubated with SPA beads in binding assay buffer (50 mM HEPES, 5 mM MgCl2, 1 mM CaCl2), 0.2% BSA, protease inhibitor tablets (Pierce) adjusted to pH7.4) prior to assay initiation. […] Assay plates are read using a Top Count NXT and Ki values for compounds are determined using a GraphPad Prism 6 non-linear regression analysis.

T1 sequence (Q01718 whole entry): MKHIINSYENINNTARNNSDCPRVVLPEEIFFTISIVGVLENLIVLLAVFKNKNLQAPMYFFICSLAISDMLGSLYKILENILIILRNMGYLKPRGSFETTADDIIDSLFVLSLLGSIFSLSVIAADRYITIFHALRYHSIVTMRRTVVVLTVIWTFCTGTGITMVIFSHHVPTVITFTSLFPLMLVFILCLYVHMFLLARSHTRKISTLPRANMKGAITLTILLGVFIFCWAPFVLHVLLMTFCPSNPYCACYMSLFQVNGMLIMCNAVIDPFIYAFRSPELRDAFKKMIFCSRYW
T1 sequence (Q8TCY5 whole entry partner): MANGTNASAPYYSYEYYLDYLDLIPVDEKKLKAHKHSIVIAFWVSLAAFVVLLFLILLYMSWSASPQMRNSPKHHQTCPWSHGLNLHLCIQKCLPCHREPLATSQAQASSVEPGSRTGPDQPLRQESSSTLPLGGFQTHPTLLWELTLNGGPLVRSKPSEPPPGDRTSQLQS

Structure (SMILES) | Ki [nM]
CCOc1ncccc1-c1ccc2c(c1)N(C[C@@H](C)N)CC21CCN(c2ccc(Cl)cc2C(F)F)CC1 [1-45, (2R)-1-{1′-[4-chloro-2-(difluoromethyl)phenyl]-6-(2-ethoxypyridin-3-yl)-1,2-dihydrospiro[indole-3,4′-piperidin]-1-yl}propan-2-amine] | 10 to 100
CCOc1ccc(N2CCC3(CC2)CN(C(=O)CCN)c2cc(-c4cccnc4OCC)ccc23)c(C#N)n1 [1-44, 3-[1-(3-aminopropanoyl)-6-(2-ethoxypyridin-3-yl)-1,2-dihydrospiro[indole-3,4′-piperidin]-1′-yl]-6-ethoxypyridine-2-carbonitrile] | 10 to 100
CCOc1ncccc1-c1ccc2c(c1)N(C(=O)CCN)CC21CCN(c2ccc(OC)nc2C#N)CC1 [1-43, 3-[1-(3-aminopropanoyl)-6-(2-ethoxypyridin-3-yl)-1,2-dihydrospiro[indole-3,4′-piperidin]-1′-yl]-6-methoxypyridine-2-carbonitrile] | 10 to 100
CCOc1ncccc1-c1ccc2c(n1)N(C[C@H](N)CO)CC21CCN(c2ccc(C(F)(F)F)cc2C#N)CC1 [1-51, 2-{1′-[(2S)-2-amino-3-hydroxypropyl]-6′-(2-ethoxypyridin-3-yl)-1′,2′-dihydrospiro[piperidine-4,3′-pyrrolo[2,3-b]pyridin]-1-yl}-5-(trifluoromethyl)benzonitrile] | < 10
CCOc1ncccc1-c1ccc2c(n1)N(CCCN)CC21CCN(c2ccc(C(F)(F)F)cc2C#N)CC1 [1-54, 2-[1′-(3-aminopropyl)-6′-(2-ethoxypyridin-3-yl)-1′,2′-dihydrospiro[piperidine-4,3′-pyrrolo[2,3-b]pyridin]-1-yl]-5-(trifluoromethyl)benzonitrile] | < 10
CCOc1ncccc1-c1ccc2c(c1)N(C(=O)CCN)CC21CCN(c2cc(OC)cc(C(F)(F)F)n2)CC1 [1-36, 3-amino-1-[6-(2-ethoxypyridin-3-yl)-1′-[4-methoxy-6-(trifluoromethyl)pyridin-2-yl]-1,2-dihydrospiro[indole-3,4′-piperidin]-1-yl]propan-1-one] | 1000 to 10000
CCOc1ncccc1-c1ccc2c(n1)N(C(=O)CCN(C)C)CC21CCN(c2ccc(C(F)(F)F)cc2C#N)CC1 [1-58, 2-{1′-[3-(dimethylamino)propanoyl]-6′-(2-ethoxypyridin-3-yl)-1′,2′-dihydrospiro[piperidine-4,3′-pyrrolo[2,3-b]pyridin]-1-yl}-5-(trifluoromethyl)benzonitrile] | < 10
CCOc1ccccc1-c1ccc2c(c1)N(C(=O)CN)CC21CCN(c2ccc(C(F)(F)F)cc2C#N)CC1 [1-2, 2-[1-(2-aminoacetyl)-6-(2-ethoxyphenyl)-1,2-dihydrospiro[indole-3,4′-piperidin]-1′-yl]-5-(trifluoromethyl)benzonitrile] | 10 to 100
CCOc1ncccc1-c1ccc2c(n1)N(CCN(C)C)C(=O)C21CCN(c2ccc(C(F)(F)F)cc2C#N)CC1 [1-62, 2-{1′-[2-(dimethylamino)ethyl]-6′-(2-ethoxypyridin-3-yl)-2′-oxo-1′,2′-dihydrospiro[piperidine-4,3′-pyrrolo[2,3-b]pyridin]-1-yl}-5-(trifluoromethyl)benzonitrile] | < 10
CCOc1ncccc1-c1ccc2c(c1)N(C(=O)CCN)CC21CCN(c2ccc(C(F)(F)F)cc2Cl)CC1 [1-7, 3-amino-1-{1′-[2-chloro-4-(trifluoromethyl)phenyl]-6-(2-ethoxypyridin-3-yl)-1,2-dihydrospiro[indole-3,4′-piperidin]-1-yl}propan-1-one] | 10 to 100

The remaining lines, values ahead:

Ki [nM] | Structure (SMILES)
< 10 | CCOc1ncccc1-c1ccc2c(c1)N(CCN)C(=O)NC21CCN(c2ccc(C(F)(F)F)cc2C#N)CC1 [1-64, 2-[1′-(2-aminoethyl)-7′-(2-ethoxypyridin-3-yl)-2′-oxo-2′,3′-dihydro-1′H-spiro[piperidine-4,4′-quinazolin]-1-yl]-5-(trifluoromethyl)benzonitrile]
< 10 | CCOc1ncccc1-c1ccc2c(c1)N([C@H](C)CN)CC21CCN(c2ccc(C(F)(F)F)cc2C#N)CC1 [1-40, 2-{1-[(2R)-1-aminopropan-2-yl]-6-(2-ethoxypyridin-3-yl)-1,2-dihydrospiro[indole-3,4′-piperidin]-1′-yl}-5-(trifluoromethyl)benzonitrile]
10 to 100 | CCOc1ncccc1-c1ccc2c(c1)N(C[C@@H]1CCN1)CC21CCN(c2ccc(C(F)(F)F)cc2C#N)CC1 [1-39, 2-(1-{[(2S)-azetidin-2-yl]methyl}-6-(2-ethoxypyridin-3-yl)-1,2-dihydrospiro[indole-3,4′-piperidin]-1′-yl)-5-(trifluoromethyl)benzonitrile]
10 to 100 | CCOc1ncccc1-c1ccc2c(c1)N(CCNC)C(=O)CC21CCN(c2ccc(C(F)(F)F)cc2C#N)CC1 [1-69, 2-[7′-(2-ethoxypyridin-3-yl)-1′-[2-(methylamino)ethyl]-2′-oxo-2′,3′-dihydro-1′H-spiro[piperidine-4,4′-quinolin]-1-yl]-5-(trifluoromethyl)benzonitrile]
< 10 | CCOc1ncccc1-c1ccc2c(c1)N(C[C@@H](C)N)CC21CCN(c2ccc(C(F)(F)F)cc2C#N)CC1 [1-13, 2-{1-[(2R)-2-aminopropyl]-6-(2-ethoxypyridin-3-yl)-1,2-dihydrospiro[indole-3,4′-piperidin]-1′-yl}-5-(trifluoromethyl)benzonitrile]
10 to 100 | CCOc1ncccc1-c1ccc2c(c1)N(C[C@@H](C)N)C(=O)CC21CCN(c2ccc(C(F)(F)F)cc2C#N)CC1 [1-70, 2-{1′-[(2R)-2-aminopropyl]-7′-(2-ethoxypyridin-3-yl)-2′-oxo-2′,3′-dihydro-1′H-spiro[piperidine-4,4′-quinolin]-1-yl}-5-(trifluoromethyl)benzonitrile]
10 to 100 | CCOc1ncccc1-c1ccc2c(c1)N(C[C@H]1CCN1)CC21CCN(c2ccc(C(F)(F)F)cc2C#N)CC1 [1-38, 2-(1-{[(2R)-azetidin-2-yl]methyl}-6-(2-ethoxypyridin-3-yl)-1,2-dihydrospiro[indole-3,4′-piperidin]-1′-yl)-5-(trifluoromethyl)benzonitrile]
< 10 | CCOc1ncccc1-c1ccc2c(c1)N([C@@H]1CCNC1)C(=O)C21CCN(c2ccc(C(F)(F)F)cc2C#N)CC1 [1-18, 2-[6-(2-ethoxypyridin-3-yl)-2-oxo-1-[(3R)-pyrrolidin-3-yl]-1,2-dihydrospiro[indole-3,4′-piperidin]-1′-yl]-5-(trifluoromethyl)benzonitrile]
10 to 100 | CCOc1ncccc1-c1ccc2c(c1)N(S(=O)(=O)CCN)CC21CCN(c2ccc(C(F)(F)F)cc2C#N)CC1 [1-37, 2-[1-(2-aminoethanesulfonyl)-6-(2-ethoxypyridin-3-yl)-1,2-dihydrospiro[indole-3,4′-piperidin]-1′-yl]-5-(trifluoromethyl)benzonitrile]
10 to 100 | CCOc1ncccc1-c1ccc2c(c1)N(CCN)CC21CCN(c2ccc(C(F)(F)F)cc2C#N)CC1 [1-12, 2-[1-(2-aminoethyl)-6-(2-ethoxypyridin-3-yl)-1,2-dihydrospiro[indole-3,4′-piperidin]-1′-yl]-5-(trifluoromethyl)benzonitrile]
10 to 100 | CCOc1ncccc1-c1ccc2c(c1)N(C(=O)CN)CC21CCN(c2ccc(C(F)(F)F)cc2C#N)CC1 [1-1, 2-[1-(2-aminoacetyl)-6-(2-ethoxypyridin-3-yl)-1,2-dihydrospiro[indole-3,4′-piperidin]-1′-yl]-5-(trifluoromethyl)benzonitrile]
< 10 | CCOc1ncccc1-c1ccc2c(n1)N(C(=O)[C@@H]1CCNC1)CC21CCN(c2ccc(C(F)(F)F)cc2C#N)CC1 [1-49, 2-[6′-(2-ethoxypyridin-3-yl)-1′-[(3R)-pyrrolidine-3-carbonyl]-1′,2′-dihydrospiro[piperidine-4,3′-pyrrolo[2,3-b]pyridin]-1-yl]-5-(trifluoromethyl)benzonitrile]
